Measurements taken from patent US12491187B2, “Use of MCT1 inhibitors to enhance insulin sensitivity” (H. LEE MOFFIT CANCER CENTER AND RESEARCH INSTITUTE, INC., priority 2022, dated 2025).

Tested on: differentiated 3T3-L1 (WT) cells
Assay: Glucose uptake (Glucose Uptake-Glo) in WT adipocytes
Format: cell-based, murine
Conditions: RO-3306 (10 μM) co-treated with AZD3965 (1 μM)
Protocol: Glucose Uptake: 3T3-L1 cells were seeded and differentiated in clear bottom 96-well plates (Corning®). After differentiation, cells were treated with or without […] AZD3965 for 24 hr, 48 hr or 72 hr as illustrated in FIG. 7 (schematic outline of experimental procedure). The cells were incubated in serum free media the night before performing the assay. The following day/morning, media was changed to serum and glucose free media for 2 hr prior to the experiment. Cells were then stimulated with 175 nM Insulin or vehicle (PBS) for 30 minutes. Glucose Uptake was measured using the Glucose Uptake-Glo™ Assay (Promega®) according to the manufacturer's protocol. The data generated were normalized by dividing the relative luminescence units (RLU) measured in insulin stimulated wells by vehicle treated controls. The aforementioned experiment was repeated in the presence of the CDK1 inhibitor, RO-3306 (10 μM), where indicated (FIG. 5C).

## O=C1NC(=NCc2cccs2)S/C1=C\c1ccc2ncccc2c1 [RO-3306]
  insulin-stimulated glucose uptake under co-treatment: the effects of AZD3965 were attenuated
